In patent US9006487B2, “Amine-containing lipids and uses thereof” (Massachusetts Institute of Technology, priority 2005, dated 2015):
“And” between values parts separate entries of the source, which are not always exact repeats. Equal values may be shown once.

Legend:
[1] = DNA delivery: raw luciferase expression (relative light units) of best-transfecting lipids; type: cell-based; conditions: 300 ng of DNA per well
Description: Raw values for luciferase expression (relative lights units) of best-transfecting lipids at lipid/DNA (w/w) ratios listed. 300 ng of DNA was added per well.

[2] = tested on: cos-7 cells; test: DNA transfection: luciferase expression relative to Lipofectamine 2000; type: cell-based; conditions: for luciferase expression (second part of table, values relative to LIPO2000): 300 ng of DNA per well
How it was run: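 cos-7 cells were transfected with 300 ng/well luciferase DNA complexed with lipid at ratios from 2.5 to 25 w/w. Bright-Glo luminescence was read after 48 hours and converted to ng luciferase by standard curve. Data are percent of the Lipofectamine 2000 control (2.5 w/w).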

[3] = 1st column, no head printed (2.5 w/w by the raw values)
[4] = 2nd column, no head printed (5 w/w by the raw values)
[5] = 3rd column, no head printed (10 w/w by the raw values)
[6] = 4th column, no head printed (15 w/w by the raw values)

Compound | Raw values for luciferase expression ([1]; lipid/DNA 2.5 w/w) | Raw values for luciferase expression ([1]; lipid/DNA 5 w/w) [relative lights units] | Raw values for luciferase expression ([1]; lipid/DNA 10 w/w) [relative lights units] | Raw values for luciferase expression ([1]; lipid/DNA 15 w/w) [relative lights units] | luciferase expression (second part of table, values relative to LIPO2000) ([2]; lipid/DNA 2.5 w/w) | luciferase expression (second part of table, values relative to LIPO2000) ([2]; lipid/DNA 5 w/w) | luciferase expression (second part of table, values relative to LIPO2000) ([2]; lipid/DNA 10 w/w) | luciferase expression (second part of table, values relative to LIPO2000) ([2]; lipid/DNA 15 w/w) | luciferase expression (second part of table, values relative to LIPO2000) ([2]; lipid/DNA 20 w/w) | luciferase expression (second part of table, values relative to LIPO2000) ([2]; lipid/DNA 25 w/w) | luciferase expression, second set of columns (replicate set of data) [2, 3] | luciferase expression, second set of columns (replicate set of data) [2, 4] | luciferase expression, second set of columns (replicate set of data) [2, 5] | luciferase expression, second set of columns (replicate set of data) [2, 6]
CCCCCCCCCCCCNC(=O)CCN(CCCCCCO)CCC(=O)NCCCCCCCCCCCC [ND36] | 4517622 relative lights units | 2945357 | 2043526 | 658985 | 135.5 | 72.8 | 84.3 | 31.6 | 0.8 | 0.0 |  |  |  | 
CCCCCCCCCCCCNC(=O)CCN(CCC(=O)NCCCCCCCCCCCC)CC(C)O (stereo not shown) [ND21] | 1170534 relative lights units | 1213862 |  |  | 47.4 | 69.2 | 18.7 | 2.6 | 0.1 | 0.4 |  |  |  | 
CCCCCCCCCCCCNC(=O)CCN(CCOCCO)CCC(=O)NCCCCCCCCCCCC [ND31] |  |  | 1154404 | 936815 | 7.7 | 5.6 | 47.6 | 44.9 | 7.6 | 19.7 |  |  |  | 
CCCCCCCCCCCCNC(=O)CCN(CCCCCO)CCC(=O)NCCCCCCCCCCCC [ND32] | 17713202 relative lights units | 2745231 |  |  | 531.2 | 67.9 | 1.1 | 0.1 | 0.0 | 0.0 |  |  |  | 
CCCCCCCCCCCCNC(=O)CCN(CCCO)CCC(=O)NCCCCCCCCCCCC [ND20] | 6868960 relative lights units and 7521540 relative lights units |  |  |  | 278.4 | 278.1 | 0.2 | 0.1 | 0.0 | 0.0 | 84.9 | 5.5 | 0.1 | 0.0
CCCCCCCCCCCCNC(=O)CCN(CCC(=O)NCCCCCCCCCCCC)CCc1c[nH]cn1 [ND94] | 774425 relative lights units | 1382667 |  |  |  |  |  |  |  |  |  |  |  | 
CCCCCCCCCCCCNC(=O)CCN(CCC(=O)NCCCCCCCCCCCC)C(CO)CO [ND25] | 7548491 relative lights units | 5088120 |  |  | 226.4 | 125.8 | 19.5 | 0.5 | 0.0 | 0.0 |  |  |  | 
CCCCCCCCCCCCNC(=O)CCN(C)CCCN(CCC(=O)NCCCCCCCCCCCC)CCC(=O)NCCCCCCCCCCCC [ND96] | 2910700 relative lights units | 42837 |  |  |  |  |  |  |  |  |  |  |  | 
CCCCCCCCCCCCNC(=O)CCN(CCO)CCN(CCC(=O)NCCCCCCCCCCCC)CCC(=O)NCCCCCCCCCCCC [ND109] | 2197484 relative lights units | 2087995 |  |  |  |  |  |  |  |  |  |  |  | 

More lines, main results first:

Raw values for luciferase expression ([1]; lipid/DNA 2.5 w/w) | Raw values for luciferase expression ([1]; lipid/DNA 5 w/w) [relative lights units] | Raw values for luciferase expression ([1]; lipid/DNA 10 w/w) [relative lights units] | Raw values for luciferase expression ([1]; lipid/DNA 15 w/w) [relative lights units] | Compound | luciferase expression (second part of table, values relative to LIPO2000) ([2]; lipid/DNA 2.5 w/w) | luciferase expression (second part of table, values relative to LIPO2000) ([2]; lipid/DNA 5 w/w) | luciferase expression (second part of table, values relative to LIPO2000) ([2]; lipid/DNA 10 w/w) | luciferase expression (second part of table, values relative to LIPO2000) ([2]; lipid/DNA 15 w/w) | luciferase expression (second part of table, values relative to LIPO2000) ([2]; lipid/DNA 20 w/w) | luciferase expression (second part of table, values relative to LIPO2000) ([2]; lipid/DNA 25 w/w) | luciferase expression, second set of columns (replicate set of data) [2, 3] | luciferase expression, second set of columns (replicate set of data) [2, 4] | luciferase expression, second set of columns (replicate set of data) [2, 5] | luciferase expression, second set of columns (replicate set of data) [2, 6]
8798627 relative lights units | 308844 |  |  | CCCCCCCCCCCCCCCCNC(=O)CCN(CCO)CCN(CCO)CCC(=O)NCCCCCCCCCCCCCCCC [NP103] | 83.0 | 2.8 | 0.0 | 1.5 |  |  | 2.1 | 2.3 | 3.8 | 1.4
 |  | 1151621 | 108854 | CCCCCCCCCCCCCCNC(=O)CCN(CCO)CCN(CCC(=O)NCCCCCCCCCCCCCC)CCC(=O)NCCCCCCCCCCCCCC [NF109] | 205.2 | 46.2 | 1.7 | 0.0 |  |  | 74.5 | 22.5 | 3.9 | 1.6
384317 relative lights units | 2283250 |  |  | CCCCCCCCCCCCCCNC(=O)CCN(CC)CCCN(CC)CCC(=O)NCCCCCCCCCCCCCC [NF64] | 5.7 | 41.9 | 0.3 | 0.1 |  |  |  |  |  | 
 |  | 2886271 | 772518 | CCCCCCCCCCCCCCNC(=O)CCN(CCO)CCN(CCO)CCC(=O)NCCCCCCCCCCCCCC [NF103] | 183.1 | 23.6 | 0.0 | 0.0 |  |  | 66.2 | 51.3 | 0.6 | 0.0
4798383 relative lights units | 4087285 |  |  | CCCCCCCCCCCCCCNC(=O)CCN(CCC(=O)NCCCCCCCCCCCCCC)CCN(CCO)CCO [NF86] | 56.7 | 53.3 | 4.5 | 2.3 |  |  |  |  |  | 
1814886 relative lights units | 1801431 |  |  | CCCCCCCCCCCCCCNC(=O)CCN(CCCO)CCC(=O)NCCCCCCCCCCCCCC [NF20] |  |  |  |  |  |  |  |  |  | 
 |  | 834849 | 1208120 | CCCCCCCCCCCCCCCNC(=O)CCN(C)CCN(CCC(=O)NCCCCCCCCCCCCCCC)CCC(=O)NCCCCCCCCCCCCCCC [NG95] |  |  |  |  |  |  |  |  |  | 
1993690 relative lights units | 1670695 |  |  | CCCCCCCCCCCCCCNC(=O)CCN(CCCN1CCOCC1)CCC(=O)NCCCCCCCCCCCCCC [NF91] |  |  |  |  |  |  |  |  |  | 
1192178 relative lights units | 838283 |  |  | CCCCCCCCCCCCCCNC(=O)CCN(CCOC)CCC(=O)NCCCCCCCCCCCCCC [NF10] |  |  |  |  |  |  |  |  |  | 
1357355 relative lights units | 1521687 | 1513703 | 1223360 | CCCCCCCCCCCCCCCNC(=O)CCN(CCC(=O)NCCCCCCCCCCCCCCC)CCN(CCO)CCO [NG86] |  |  |  |  |  |  |  |  |  | 
1443678 relative lights units | 33188 |  |  | CCCCCCCCCCCCCCCCNC(=O)CCN(CCN(CCC(=O)NCCCCCCCCCCCCCCCC)C(C)C)C(C)C [NP62] |  |  |  |  |  |  |  |  |  | 
823764 relative lights units | 1005875 |  |  | CCCCCCCCCCCCCCCNC(=O)CCN(CCCN(CCO)CCO)CCC(=O)NCCCCCCCCCCCCCCC [NG87] |  |  |  |  |  |  |  |  |  | 
778473 relative lights units | 227587 |  |  | CCCCCCCCCCCCCCNC(=O)CCN(CCCOC)CCC(=O)NCCCCCCCCCCCCCC [NF1] |  |  |  |  |  |  |  |  |  | 
2473702 relative lights units | 1366194 |  |  | CCCCCCCCCCCCCCNC(=O)CCN(CCC(=O)NCCCCCCCCCCCCCC)C(CO)CO [NF25] |  |  |  |  |  |  |  |  |  | 
